Experiments:
Assay in all cases: Antibacterial activity
Type in all cases: cell-based
s. aureos = conditions: against s. aureos
From the text: (§1) The fragrance accords can contain antibacterial ingredients described above. See U.S. Pat. No. 6,495,512 for a list of suitable antibacterial ingredients.

e. hirae = conditions: against e. hirae
From the text: as §1

e. coli = conditions: against e. coli
From the text: as §1

Measured: antibacterial activity

COc1ccc(C)cc1 [1-methoxy-4-methylbenzene]
high antibacterial activity: s. aureos | e. hirae | e. coli

C=CC(C)(O)CCC=C(C)C (stereo not drawn) [3,7-dimethylocta-1,6-dien-3-ol]
high antibacterial activity: s. aureos | e. hirae | e. coli

Source: patent US11326126B2, “High performing, high impact bloom accord” (International Flavors & Fragrances Inc., priority 2016, dated 2022)
